pKd: −log10 of the molar value. Numbered stars: 1 amine (or outer) side, 2 acyl side, 3 side chain; on linkers, the order of the positions; unused ones are H or OH. Bridge positions count the residues as written; N and C are the ends. Square brackets hold non-standard residues; d marks the D form. Peptide text beside a SMILES is read from it. * marks the point of attachment. Ala(piperidin-4-yl) = O=C([C@H](CC1CCN([*:3])CC1)N[*:1])[*:2]; DOTA = O=C(O)CN1CCN(CC(=O)O)CCN(CC(=O)*)CCN(CC(=O)O)CC1; Trp(7-Me) = Cc1cccc2c(C[C@H](N)C(=O)O)c[nH]c12; Phe(4-CH2NH2) = NCc1ccc(C[C@H](N)C(=O)O)cc1; 1Nal = N[C@@H](Cc1cccc2ccccc12)C(=O)O; 2Nal = N[C@@H](Cc1ccc2ccccc2c1)C(=O)O; NMetBuAla = CN[C@@H](CC(C)(C)C)C(=O)O; NMeChg = CN[C@H](C(=O)O)C1CCCCC1; tBuAla = CC(C)(C)C[C@H](N)C(=O)O; Chg = N[C@H](C(=O)O)C1CCCCC1; αMeP = C[C@@]1(C(=O)O)CCCN1; Ahx = NCCCCCC(=O)O

The target in this assay is T1, human DLL3 (Homo sapiens, UniProt Q9NYJ7).
T1 construct: biotin (biotinylated)
T1 sequence (Q9NYJ7 27-618): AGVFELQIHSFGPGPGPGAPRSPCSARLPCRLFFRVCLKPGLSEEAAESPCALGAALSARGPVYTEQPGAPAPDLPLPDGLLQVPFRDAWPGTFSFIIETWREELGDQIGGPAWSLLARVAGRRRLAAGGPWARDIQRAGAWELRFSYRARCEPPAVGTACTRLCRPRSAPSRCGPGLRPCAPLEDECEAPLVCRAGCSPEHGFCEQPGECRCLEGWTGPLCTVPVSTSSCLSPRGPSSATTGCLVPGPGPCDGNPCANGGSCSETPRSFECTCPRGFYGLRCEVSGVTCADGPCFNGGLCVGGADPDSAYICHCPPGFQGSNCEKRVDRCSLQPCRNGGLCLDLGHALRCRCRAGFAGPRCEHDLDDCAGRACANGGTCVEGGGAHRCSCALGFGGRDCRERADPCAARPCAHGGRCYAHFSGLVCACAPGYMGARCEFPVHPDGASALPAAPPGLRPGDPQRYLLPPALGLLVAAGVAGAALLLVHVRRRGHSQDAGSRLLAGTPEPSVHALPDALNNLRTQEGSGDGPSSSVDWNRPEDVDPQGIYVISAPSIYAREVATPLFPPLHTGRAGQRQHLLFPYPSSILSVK
The assay is described as follows: Affinity determination by Surface Plasmon Resonance (SPR), Biacore, 1:1 binding model. The conditions noted are these: biotinylated human DLL3 on streptavidin chip, 25° C.; NB = nonbinding. The essentials: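 SPR with biotinylated human DLL3 captured on a streptavidin chip, with a reference surface subtracted. Samples were injected at several concentrations at 100 μL/min in phosphate buffer with 137 mM NaCl, 2.7 mM KCl, 0.05% P20 and 2% DMSO. Kinetic and affinity constants came from a 1:1 binding fit.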
Background: Surface plasmon resonance follows binding to a sensor surface in real time, without labels.
`C[C@@H](NC(=O)CN1CCN(CC(=O)O)CCN(CC(=O)O)CCN(CC(=O)O)CC1)C(=O)N[C@@H](CO)C(=O)N[C@@H](CC(=O)O)C(=O)N[C@H]1CSSC[C@@H](C(=O)N2CCC[C@@]2(C)C(=O)N[C@@H](Cc2ccccc2)C(=O)N[C@@H](CC(=O)O)C(N)=O)NC(=O)[C@H](CC(N)=O)NC(=O)[C@H](Cc2ccc3ccccc3c2)NC(=O)[C@H](CC2CCNCC2)NC(=O)[C@H](CC(C)(C)C)NC(=O)[C@H](Cc2cccc3ccccc23)NC1=O` [compound 175, DOTA-(D-Ala)-S-D-C(3)-(1Nal)-(t-Bu-Ala)-[3-(4-piperidinyl)-Ala]-(2Nal)-N-C(3)-(aMe-P)-F -D-CONH2] ({DOTA}-[dA]SDC[1Nal][tBuAla][Ala(piperidin-4-yl)][2Nal]NC[αMeP]FD-NH2; disulfide 4-10): the negative-log Kd (pKd) was 10.17.

On to `C[C@@H](NC(=O)CCCCCNC(=O)CN1CCN(CC(=O)O)CCN(CC(=O)O)CCN(CC(=O)O)CC1)C(=O)N[C@@H](CO)C(=O)N[C@@H](CC(=O)O)C(=O)N[C@H]1CSSC[C@@H](C(=O)N2CCC[C@@]2(C)C(=O)N[C@@H](Cc2ccccc2)C(=O)N[C@@H](CC(=O)O)C(N)=O)NC(=O)[C@H](CC(N)=O)NC(=O)[C@H](Cc2ccc3ccccc3c2)NC(=O)[C@H](CC2CCNCC2)NC(=O)[C@H](CC(C)(C)C)NC(=O)[C@H](Cc2cccc3ccccc23)NC1=O` [compound 177, DOTA-PEG4-S-D-C(3)-(1Nal)-(t-Bu-Ala)-[3-(4-piperidinyl)-Ala]-(2Nal)-N-C(3)-(aMe-P)-F -D-CONH2] ({DOTA-Ahx}-[dA]SDC[1Nal][tBuAla][Ala(piperidin-4-yl)][2Nal]NC[αMeP]FD-NH2; disulfide 4-10), for which the negative logarithm of the Kd (pKd) was 10.01. With `CC(=O)N[C@@H](CO)C(=O)N[C@@H](CC(=O)O)C(=O)N[C@H]1CSSC[C@@H](C(=O)N2CCC[C@@]2(C)C(=O)N[C@@H](Cc2ccccc2)C(=O)N[C@@H](CC(=O)O)C(=O)N[C@H](CCCCNC(=O)CN2CCN(CC(=O)O)CCN(CC(=O)O)CCN(CC(=O)O)CC2)C(N)=O)NC(=O)[C@H](CC(N)=O)NC(=O)[C@H](Cc2ccc3ccccc3c2)NC(=O)[C@H](CC2CCNCC2)NC(=O)[C@H](CC(C)(C)C)N(C)C(=O)[C@H](Cc2cccc3ccccc23)NC1=O` [compound 178, Ac-S-D-C(3)-(1Nal)-(NMe-Tba)-[3-(4-piperidinyl)-Ala]-(2Nal)-N-C(3)-(aMe-P)-F -D-[D-Lys(DOTA)]-NH2] (Ac-SDC[1Nal][NMetBuAla][Ala(piperidin-4-yl)][2Nal]NC[αMeP]FD[dK](DOTA)-NH2; disulfide 3-9) the figure was 8.61; with `CC(=O)N[C@@H](CO)C(=O)N[C@@H](CC(=O)O)C(=O)N[C@H]1CSSC[C@@H](C(=O)N2CCC[C@@]2(C)C(=O)N[C@@H](Cc2ccccc2)C(=O)N[C@@H](CC(=O)O)C(=O)N[C@H](CCCCNC(=O)CN2CCN(CC(=O)O)CCN(CC(=O)O)CCN(CC(=O)O)CC2)C(N)=O)NC(=O)[C@H](CC(N)=O)NC(=O)[C@H](Cc2ccc3ccccc3c2)NC(=O)[C@H](CC2CCNCC2)NC(=O)[C@H](C2CCCCC2)N(C)C(=O)[C@H](Cc2cccc3ccccc23)NC1=O` [compound 179, Ac-S-D-C(3)-(1Nal)-(NMe-Chg)-[3-(4-piperidinyl)-Ala]-(2Nal)-N-C(3)-(aMe-P)-F -D-[D-Lys(DOTA)]-NH2] (Ac-SDC[1Nal][NMeChg][Ala(piperidin-4-yl)][2Nal]NC[αMeP]FD[dK](DOTA)-NH2; disulfide 3-9), below 7.52; with `CC(=O)N[C@@H](CC1CCNCC1)C(=O)N[C@@H](CO)C(=O)N[C@@H](CC(=O)O)C(=O)N[C@H]1CSSC[C@@H](C(=O)N2CCC[C@@]2(C)C(=O)N[C@@H](Cc2ccccc2)C(=O)N[C@@H](CC(=O)O)C(N)=O)NC(=O)[C@H](CC(N)=O)NC(=O)[C@H](Cc2ccc3ccccc3c2)NC(=O)[C@H](Cc2ccc(CNC(=O)CN3CCN(CC(=O)O)CCN(CC(=O)O)CCN(CC(=O)O)CC3)cc2)NC(=O)[C@H](CC(C)(C)C)N(C)C(=O)[C@H](Cc2cccc3ccccc23)NC1=O` [compound 180, Ac-[3-(4-piperidinyl)-Ala]-S-D-C(3)-(1Nal)-(NMe-Tba)-[PAF(DOTA)]-(2Nal)-N-C(3)-(aMe-P)-F -D-CONH2] (Ac-[Ala(piperidin-4-yl)]SDC[1Nal][NMetBuAla][Phe(4-CH2NH2)](DOTA)[2Nal]NC[αMeP]FD-NH2; disulfide 4-10), below 7.52. With `CC(=O)N[C@@H](CC1CCNCC1)C(=O)N[C@@H](CO)C(=O)N[C@@H](CC(=O)O)C(=O)N[C@H]1CSSC[C@@H](C(=O)N2CCC[C@@]2(C)C(=O)N[C@@H](Cc2ccccc2)C(=O)N[C@@H](CC(=O)O)C(N)=O)NC(=O)[C@H](CC(N)=O)NC(=O)[C@H](Cc2ccc3ccccc3c2)NC(=O)[C@H](Cc2ccc(CNC(=O)CN3CCN(CC(=O)O)CCN(CC(=O)O)CCN(CC(=O)O)CC3)cc2)NC(=O)[C@H](C2CCCCC2)N(C)C(=O)[C@H](Cc2cccc3ccccc23)NC1=O` [compound 181, Ac-[3-(4-piperidinyl)-Ala]-S-D-C(3)-(1Nal)-(NMe-Chg)-[PAF(DOTA)]-(2Nal)-N-C(3)-(aMe-P)-F -D-CONH2] (Ac-[Ala(piperidin-4-yl)]SDC[1Nal][NMeChg][Phe(4-CH2NH2)](DOTA)[2Nal]NC[αMeP]FD-NH2; disulfide 4-10) the figure was below 7.52; with `CC(=O)N[C@H](C(=O)N[C@@H](CO)C(=O)N[C@@H](CC(=O)O)C(=O)N[C@H]1CSSC[C@@H](C(=O)N2CCC[C@@]2(C)C(=O)N[C@@H](Cc2ccccc2)C(=O)N[C@@H](CC(=O)O)C(=O)N[C@H](CCCCNC(=O)CN2CCN(CC(=O)O)CCN(CC(=O)O)CCN(CC(=O)O)CC2)C(N)=O)NC(=O)[C@H](CC(N)=O)NC(=O)[C@H](Cc2ccc3ccccc3c2)NC(=O)[C@H](CC2CCNCC2)NC(=O)[C@H](CC(C)(C)C)N(C)C(=O)[C@H](Cc2cccc3ccccc23)NC1=O)C1CCCCC1` [compound 182, Ac-Chg-S-D-C(3)-(1Nal)-(NMe-Tba)-[3-(4-piperidinyl)-Ala]-(2Nal)-N-C(3)-(aMe-P)-F -D-[D-Lys(DOTA)]-NH2] (Ac-[Chg]SDC[1Nal][NMetBuAla][Ala(piperidin-4-yl)][2Nal]NC[αMeP]FD[dK](DOTA)-NH2; disulfide 4-10), 8.27.

In turn, `CC(=O)N[C@H](C(=O)N[C@@H](CO)C(=O)N[C@@H](CC(=O)O)C(=O)N[C@H]1CSSC[C@@H](C(=O)N2CCC[C@@]2(C)C(=O)N[C@@H](Cc2ccccc2)C(=O)N[C@@H](CC(=O)O)C(=O)N[C@H](CCCCNC(=O)CN2CCN(CC(=O)O)CCN(CC(=O)O)CCN(CC(=O)O)CC2)C(N)=O)NC(=O)[C@H](CC(N)=O)NC(=O)[C@H](Cc2ccc3ccccc3c2)NC(=O)[C@H](CC2CCNCC2)NC(=O)[C@H](C2CCCCC2)N(C)C(=O)[C@H](Cc2cccc3ccccc23)NC1=O)C1CCCCC1` [compound 183, Ac-Chg-S-D-C(3)-(1Nal)-(NMe-Chg)-[3-(4-piperidinyl)-Ala]-(2Nal)-N-C(3)-(aMe-P)-F -D-[D-Lys(DOTA)]-NH2] (Ac-[Chg]SDC[1Nal][NMeChg][Ala(piperidin-4-yl)][2Nal]NC[αMeP]FD[dK](DOTA)-NH2; disulfide 4-10) gave a negative logarithm of the Kd (pKd) below 7.52. With `CC(=O)N[C@H](C(=O)N[C@@H](CO)C(=O)N[C@@H](CC(=O)O)C(=O)N[C@H]1CSSC[C@@H](C(=O)N2CCC[C@@]2(C)C(=O)N[C@@H](Cc2ccccc2)C(=O)N[C@@H](CC(=O)O)C(=O)N[C@H](CCCCNC(=O)CN2CCN(CC(=O)O)CCN(CC(=O)O)CCN(CC(=O)O)CC2)C(N)=O)NC(=O)[C@H](CC(N)=O)NC(=O)[C@H](Cc2c[nH]c3c(C)cccc23)NC(=O)[C@H](CC2CCNCC2)NC(=O)[C@H](CC(C)(C)C)N(C)C(=O)[C@H](Cc2cccc3ccccc23)NC1=O)C1CCCCC1` [compound 184, Ac-Chg-S-D-C(3)-(1Nal)-(NMe-Tba)-[3-(4-piperidinyl)-Ala]-(7Me-W)-N-C(3)-(aMe-P)-F -D-[D-Lys(DOTA)]-NH2] (Ac-[Chg]SDC[1Nal][NMetBuAla][Ala(piperidin-4-yl)][Trp(7-Me)]NC[αMeP]FD[dK](DOTA)-NH2; disulfide 4-10) the figure was below 7.52; with `CC(=O)N[C@H](C(=O)N[C@@H](CO)C(=O)N[C@@H](CC(=O)O)C(=O)N[C@H]1CSSC[C@@H](C(=O)N2CCC[C@@]2(C)C(=O)N[C@@H](Cc2ccccc2)C(=O)N[C@@H](CC(=O)O)C(=O)N[C@H](CCCCNC(=O)CN2CCN(CC(=O)O)CCN(CC(=O)O)CCN(CC(=O)O)CC2)C(N)=O)NC(=O)[C@H](CC(N)=O)NC(=O)[C@H](Cc2c[nH]c3c(C)cccc23)NC(=O)[C@H](CC2CCNCC2)NC(=O)[C@H](C2CCCCC2)N(C)C(=O)[C@H](Cc2cccc3ccccc23)NC1=O)C1CCCCC1` [compound 185, Ac-Chg-S-D-C(3)-(1Nal)-(NMe-Chg)-[3-(4-piperidinyl)-Ala]-(7Me-W)-N-C(3)-(aMe-P)-F -D-[D-Lys(DOTA)]-NH2] (Ac-[Chg]SDC[1Nal][NMeChg][Ala(piperidin-4-yl)][Trp(7-Me)]NC[αMeP]FD[dK](DOTA)-NH2; disulfide 4-10), below 7.52.

As usually defined, the pKd is the negative decadic logarithm of the Kd, by convention in mol/L.
